# Assay results: US20260256799A1, “INHIBITORS FOR TREATING SOLID TUMOURS” (UNIVERSITY OF SOUTHAMPTON, priority 2023, published 2026)
# Key:
# [1] = tested on: ATM; test: ATM activation and dimerization in CAF nuclear extracts (Western blotting); format: cell-based, human; settings: GKT137831 daily for 72 hours
# Method: (§1) Human NSCLC cell line H441, HNSCC SCC25, murine cancer cell line TC-1 (lung), MC38 (colon) and human fetal foreskin fibroblasts HFFF2 were purchased from European Collection of Cell Cultures (Public Health England) or ATCC; HNSCC 5PT [32] were provided by l. Mackenzie (Queen Mary University of London, UK). HEK-293T cells and IMR90 lung fibroblasts were provided by Jesus Gil (Imperial College, London, UK). SCC25 were grown in Ham's F12:DMEM (1:1 ratio) medium with 10% FBS (Calbiochem) and 292 μg/ml L-Glutamine. 5PT were cultured in keratinocyte growth medium. HEK-293T, H441, MC38, HFFF2, IMR90 and primary fibroblasts were grown in DMEM supplemented with 10% FBS and 292 μg/ml L-Glutamine. Primary fibroblasts were isolated as previously used at early passage (p1-10). […]
# (§2) Cells were lysed in ice-cold RIPA buffer [1% NP40, 150 mM NaCl, 25 mM Tris-HCl pH 7.5, 0.1% SDS, 1% Na-Deoxycolate, 1 mM EGTA, 1 mM EDTA, 1 mM Na-orthovanadate, 10 mM Na-fluoride, 2.5 mM Na-pyrophosphate, 1 mM p glycerophosphate+freshly added 1 mM PMSF, 20 mM N-Ethylmaleimide (NEM), 10 ng/ml Microcystin-LR, 0.12 μM Okadaic acid and phosphatase and protease inhibitor cocktails; all from Sigma]. Protein extracts were then centrifuged and supernatants quantified using Dc-Bio-Rad protein assay kit (Bio-Rad laboratories) as previously. […]
# [2] = tested on: HFFF2; test: ROS assay (DCFH-DA fluorescence); format: cell-based, human; settings: GKT137831 40 μM, HFFF2 treated 48 hours with TGF-β1
# Method: (§3) HFFF2s were plated in 24-well plates (1×10^3 or 5×10^3 cells/well) and treated with TGF-β1 the following day (and then every 3 days). Senescence was quantified at day 5 and 12 from TGF-β1 treatment determining the percentage of SA-β-Gal-positive cells (Sigma) of the total number of cells counterstained with Dapi (Sigma) as previously described. At least 200 cells/well in at least three independent experiments were counted per sample using a CKX41 Olympus fluorescent microscope. Cells were less than 50% confluent at the end of the experiment to avoid SA-β-Gal-false positive cells due to cell contact. ROS assay was performed as previously.
# [3] = target: T1, NOX4 (Homo sapiens, UniProt Q9NPH5); settings: cited from earlier work
# T1 sequence (Q9NPH5 1-578): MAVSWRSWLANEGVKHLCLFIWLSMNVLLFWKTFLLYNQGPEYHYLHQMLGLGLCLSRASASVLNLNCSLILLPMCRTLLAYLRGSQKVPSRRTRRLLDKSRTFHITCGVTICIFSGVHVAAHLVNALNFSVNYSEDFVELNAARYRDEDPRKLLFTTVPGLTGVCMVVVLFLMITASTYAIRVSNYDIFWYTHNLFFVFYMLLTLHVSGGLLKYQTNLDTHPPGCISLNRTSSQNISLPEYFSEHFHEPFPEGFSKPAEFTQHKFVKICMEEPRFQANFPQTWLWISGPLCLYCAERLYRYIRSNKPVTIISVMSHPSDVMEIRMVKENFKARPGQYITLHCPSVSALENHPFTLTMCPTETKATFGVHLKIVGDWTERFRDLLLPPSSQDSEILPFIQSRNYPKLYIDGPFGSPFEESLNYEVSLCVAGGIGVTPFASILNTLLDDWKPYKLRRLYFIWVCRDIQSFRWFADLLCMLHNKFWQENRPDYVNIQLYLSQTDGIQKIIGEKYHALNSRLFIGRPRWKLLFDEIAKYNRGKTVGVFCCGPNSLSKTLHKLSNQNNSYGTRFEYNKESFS
# T1 sequence (P13498 1-195 partner): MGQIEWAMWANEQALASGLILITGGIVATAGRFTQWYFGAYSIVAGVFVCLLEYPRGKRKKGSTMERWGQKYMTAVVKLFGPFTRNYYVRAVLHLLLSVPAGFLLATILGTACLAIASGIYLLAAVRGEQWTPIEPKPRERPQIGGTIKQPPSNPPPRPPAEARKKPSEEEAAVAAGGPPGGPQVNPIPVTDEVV
# [4] = tested on: ATM; test: TGF-β1-dependent ATM activation in fibroblasts (Western blotting); format: cell-based, human
# Method: as §1, with “(p1-10). C57BL/6 murine normal lung and colon fibroblasts (MLF and MCF respectively) were grown at 3% oxygen. TC-1 were cultured in RPMI supplemented with 10% FBS and 292 μg/ml L-Glutamine. All cell cultures were routinely tested for mycoplasma contamination. All cells were cultured using standard cell culture plates/flasks (Corning). HFFF2 or IMR90 cells were transfected with 25 μM On-Target pool siRNA (Thermo Scientific/Dharmacon) using Oligofectamine reagent (Life Technologies) as described. Stable knockdown was performed using retro/lentiviral mediated transduction of shRNA plasmids, as previously described followed by cell selection using 1 μg/ml puromycin for 5-7 days. NOX4-inducible HEK-293 cells (kindly provided by Vincent Jaquet) were treated with 1 μg/ml doxycycline.” for “(p1-10).”
# as §2
# [5] = tested on: HFFF2 fibroblasts; test: TGF-β1-induced myofibroblast differentiation of fibroblasts (Western blotting, immunofluorescence, Q-RT-PCR, collagen gel contraction); format: cell-based, human
# Method: (§4) Human NSCLC cell line H441, HNSCC SCC25, murine cancer cell line TC-1 (lung), MC38 (colon) and human fetal foreskin fibroblasts HFFF2 were purchased from European Collection of Cell Cultures (Public Health England) or ATCC; HNSCC 5PT [32] were provided by l. Mackenzie (Queen Mary University of London, UK). HEK-293T cells and IMR90 lung fibroblasts were provided by Jesus Gil (Imperial College, London, UK). SCC25 were grown in Ham's F12:DMEM (1:1 ratio) medium with 10% FBS (Calbiochem) and 292 μg/ml L-Glutamine. 5PT were cultured in keratinocyte growth medium. HEK-293T, H441, MC38, HFFF2, IMR90 and primary fibroblasts were grown in DMEM supplemented with 10% FBS and 292 μg/ml L-Glutamine. Primary fibroblasts were isolated as previously used at early passage (p1-10). C57BL/6 murine normal lung and colon fibroblasts (MLF and MCF respectively) were grown at 3% oxygen. TC-1 were cultured in RPMI supplemented with 10% FBS and 292 μg/ml L-Glutamine. All cell cultures were routinely tested for mycoplasma contamination. All cells were cultured using standard cell culture plates/flasks (Corning). HFFF2 or IMR90 cells were transfected with 25 μM On-Target pool siRNA (Thermo Scientific/Dharmacon) using Oligofectamine reagent (Life Technologies) as described. Stable knockdown was performed using retro/lentiviral mediated transduction of shRNA plasmids, as previously described followed by cell selection using 1 μg/ml puromycin for 5-7 days. NOX4-inducible HEK-293 cells (kindly provided by Vincent Jaquet) were treated with 1 μg/ml doxycycline. Wild type and mutant (C2991L) ATM over-expression was carried out transfecting HFFF2 with Viafect (Promega) according to manufacturer's instructions and selected for 10 days with 4 mg/ml G418. p-Retrosuper-shATM (ATM #1:912) and pCDNA3.1-Flag-mut-ATM (C2991L; pTP1625 clone) were kindly provided by Yosef Shiloh and Tanya Paull respectively. pLKO.1 murine shATM (TRCN0000012643) and pCDNA3.1-Flag-wt-ATM (31985) were purchased from Sigma and Addgene respectively. 2 ng/ml TGF-3 (TGF-β1; R&D Systems; for 3 days) was used to induce myofibroblast differentiation. 10 ng/ml IL-1pR (R&D Systems) for 72 hours was used to induce iCAF differentiation. […] All the inhibitors were resuspended in DMSO. To trigger DDR activation and/or cell stress HFFF2 were either irradiated with 2-100Gy using 350Kv X-Ray Irradiation System (Faxitron), or treated with 100 ng/ml Neocarzinostatin for 2 hours (NCS; Sigma), with 2-10 mM H2O2(Fisher Scientific) or with 5 μg/ml Cisplatin (Sandoz) for 30 minutes.
# 5×10^3 HFFF2 were plated on permanox chamber slides (Thermo Scientific) and treated as described in the figure legends. Immunostaining was performed as previously. DAPI was used as nuclear counterstain and coverslips were mounted using fluorescent mounting solution (Dako). Images were taken using an Olympus IX81 fluorescence microscope and Xcellence program. DNA Damage foci were quantified from at least 8 non-overlapping FoV with ~300 cells in total per condition. Kruskall-Wallis statistical test was used to indicate the presence of a different distribution per time points in each group of foci. For collagen 1A1 deposition, 5×10^3 HFFF2 or MLF were seeded into chamber slides and treated with TGF-β1±inhibitors for a week (treated day 1 & day 4). Decellularisation was performed using 0.25M NH4OH in 50 mM Tris at 37° C. for 30 minutes and slides fixed with ice-cold 100% methanol at −20° C. followed by a blocking step. The remainderwas performed as previously described. SMA and Collagen 1A1 quantification was performed using Fiji. High resolution imaging of mouse tumours was carried out using an Axioscan.Z1 scanner (Zeiss).
# [6] = tested on: HFFF2; test: IL-1-induced iCAF gene expression (Q-RT-PCR); format: cell-based, human; settings: KU55933 + 10 ng/ml IL-1p 72 hours
# Method: as §1, with “(p1-10). C57BL/6 murine normal lung and colon fibroblasts (MLF and MCF respectively) were grown at 3% oxygen. TC-1 were cultured in RPMI supplemented with 10% FBS and 292 μg/ml L-Glutamine. All cell cultures were routinely tested for mycoplasma contamination. All cells were cultured using standard cell culture plates/flasks (Corning).” for “(p1-10).”
# For Quantitative Real-time PCR (Q-RT-PCR), RNA was extracted and retro-transcribed as described previously and Q-RT-PCR was performed as previously. The mRNA expression levels were analyzed using the AACt relative quantitation method. […]
# [7] = tested on: H441, 5PT, SCC25 cells; test: Transwell invasion assay towards fibroblast-conditioned media; format: cell-based, human
# Method: CAF, HFFF2 or shCTR/shATM HFFF2 populations were treated with 13.3 μM KU55933+/−TGF-β1 for 7 days (treated day 1, day 4). Cells were washed twice with PBS and serum-free DMEM added for 72 hours. Fibroblast-conditioned medium (CM) was collected, centrifuged, filtered (0.2 μm), normalized according to cell number and used as a chemoattractant in the lower chamber of Transwell invasion assays as previously. Two-way Anova was used for statistical analysis.
# [8] = tested on: HNSCC and NSCLC CAF; test: Established myoCAF phenotype of CAF cultured ex vivo; format: cell-based, human
# Method: as §4
# Cells were lysed in ice-cold RIPA buffer [1% NP40, 150 mM NaCl, 25 mM Tris-HCl pH 7.5, 0.1% SDS, 1% Na-Deoxycolate, 1 mM EGTA, 1 mM EDTA, 1 mM Na-orthovanadate, 10 mM Na-fluoride, 2.5 mM Na-pyrophosphate, 1 mM p glycerophosphate+freshly added 1 mM PMSF, 20 mM N-Ethylmaleimide (NEM), 10 ng/ml Microcystin-LR, 0.12 μM Okadaic acid and phosphatase and protease inhibitor cocktails; all from Sigma]. Protein extracts were then centrifuged and supernatants quantified using Dc-Bio-Rad protein assay kit (Bio-Rad laboratories) as previously. For nuclear-cytoplasmic protein extraction, the inventors used NE-PER Reagents according to manufacturer's instructions (Thermofisher). Equal amounts of protein were electrophoresed either in reducing (+Dithiothreitol, DTT) or in non-reducing conditions in 3-8% or 4-12% SDS-PAGE gels and electro blotted as previously.
# [9] = tested on: HFFF2; test: Senescence assay (SA-β-Gal); format: cell-based, human; settings: continuous TGF-β1 administration, at 12 days
# Method: as §3
# [10] = GKT137831 40 μM, HFFF2, TGF-β1 24 hours
molecule,measurement,setting,value
CN(C)c1cccc(-c2c3c(=O)n(-c4ccccc4Cl)[nH]c3cc(=O)n2C)c1 [GKT137831],ATM dimerization,[1]; non-reducing conditions,inhibited
same,ATM activation,[1]; two HNSCC CAF and one NSCLC CAF,inhibited
same,ROS production,[2],suppressed
same,myoCAF differentiation,[3],suppresses
same,myoCAF-mediated immunotherapy resistance,[3],overcomes
same,ATM downstream kinase activity,[4]; [10],inhibited
same,ATM phosphorylation,[4]; [10],inhibited
same,DNA damage monitored by pH2AX protein expression,"[4]; GKT137831, HFFF2, TGF-β1 48 hours",decreased
O=c1cc(-c2cccc3c2Sc2ccccc2S3)oc(N2CCOCC2)c1 [KU55933],expression of SMA,"[5]; KU55933 13.3 μM + TGF-β1 72 hours, HFFF2 and primary colon, skin, oral fibroblasts",inhibiting
same,SMA-positive stress fiber formation,"[5]; KU55933 13.3 μM + TGF-β1, 3 days, HFFF2",inhibiting
same,collagen1 deposition,"[5]; KU55933 13.3 μM + TGF-β1, 7 days, HFFF2, MLF one week",inhibiting
same,contraction of collagen gels,"[5]; KU55933 13.3 μM + TGF-β1, HFFF2 or normal primary oral fibroblasts",inhibiting
same,myofibroblast differentiation,[5]; KU55933 13.3 μM co-treated with TGF-β1,suppressed differentiation
same,"TGF-β1 induction of myoCAF genes (COL11A1, ASPN, ELN)","[5]; KU55933 + TGF-β1 72 hours, HFFF2, Q-RT-PCR",suppressed
same,"IL-1p induction of most iCAF genes (CCL2, LIF, IL6, CXCL1)",[6],significantly upregulated
same,invasion-promoting effects of myofibroblasts generated through TGF-β1 treatment,[7]; 5PT or SCC25 cells towards conditioned media of HFFF2 treated with TGF-β1 +/− KU55933 7 days,suppressed
same,myoCAF-dependent cancer cell invasion,[7]; H441 or 5PT cells towards conditioned media of NSCLC / HNSCC CAF treated with KU55933 13.3 μM 7 days,inhibiting
same,CAF phenotype,[8]; KU55933 for 7 days,reverted CAF to a more quiescent phenotype
same,"expression of myofibroblast markers (SMA, collagen I, fibronectin)",[8]; KU55933 for 7 days,downregulating
same,contractility,"[8]; collagen gel contraction, ATM inhibition by KU55933 or shRNA-knockdown",suppressing
TGF-β1: cytokine (R&D Systems) used to induce myofibroblast differentiation,% range SA-β-Gal-positive cells,[9],15.8-23.3%
